Assay results published in article PMC9607644, “Glycoconjugation of Quinoline Derivatives Using the C-6 Position in Sugars as a Strategy for Improving the Selectivity and Cytotoxicity of Functionalized Compounds” (Molecules, 2022).
Marks after values point to notes of the source that are not given here.

Columns and labels:
[1] = system: HCT-116 cells; experiment: MTT cytotoxicity assay, HCT-116; type: cell-based, human; settings: for IC50: Homo sapiens, HCT-116; for IC50 / growth inhibitory activity in words, HCT-116: MTT
Description: (§1) An in vitro biological test package was performed for the obtained derivatives. […] The MTT test is a colorimetric method for detecting proliferating cells. It is based on the ability of the enzyme mitochondrial dehydrogenase to convert yellow tetrazole salt (MTT) into purple formazan. The amount of the product formed in the reaction, determined spectrophotometrically, is proportional to the number of living cells.
(§2) The in vitro cytotoxicity of the test compounds was determined by the MTT (3-[4,5–dimethylthiazol-2-yl]-2,5-diphenyltetrazolium bromide) test (Sigma-Aldrich, Taufkirchen, Germany) according to the manufacturer’s protocol. At the beginning, for each cell line were determined the optimal seeding densities to ensure exponential growth throughout the experimental period. The confluent layer of cells were trypsinized, collected, and suspended in a growth medium. […] Then, the culture medium was replaced with solutions of different concentrations of test compounds in a fresh medium. Stock solutions of test compounds were prepared in DMSO and diluted to final concentrations with appropriate volumes of the growth medium directly before the experiment. Cells suspended in a medium supplemented with 0.5% DMSO (the amount of DMSO necessary to dissolve the highest dose of the respective sample) were used as a control of the experiment. […] The compound-treated cells were incubated for a further 24–72 h. […] After this time, the MTT dye was carefully removed, and the acquired formazan crystals were dissolved by DMSO (Chempur, Piekary Śląskie, Poland). The proliferation was evaluated by measuring the formazan product’s absorbance at a wavelength of 570 nm with a microplate spectrophotometer (Epoch, BioTek, Winooski, VT, USA). All experiments were conducted in triplicate with four technical repeats for each tested concentration. Results were expressed as the percentage change in the viability of the test cells relative to the untreated control cells and calculated as the inhibitory concentration (IC50). […] The results are expressed as the average value ± standard deviation (SD).

[2] = system: MCF-7 cells; experiment: MTT cytotoxicity assay, MCF-7; type: cell-based, human; settings: for IC50: Homo sapiens, MCF7, incubation time 72 h; for IC50 / growth inhibitory activity in words, MCF-7: MTT; for Selectivity Index (SI) MCF-7: IC50 NHDF-Neo / IC50 MCF-7, 72 h incubation
Description: as §1, §2

[3] = system: NHDF-Neo cells; experiment: MTT cytotoxicity assay, NHDF-Neo; type: cell-based; settings: Homo sapiens, incubation time 72 h
Description: An in vitro biological test package was performed for the obtained derivatives. All newly synthesized compounds were assessed for their cytotoxic activity against human cell lines with increased GLUT expression: the colon cancer cell line (HCT-116) and the breast cancer cell line (MCF-7), as well as on normal human dermal fibroblasts cells (NHDF-Neo), using the MTT assay (3-(4,5-dimethylthiazol-2-yl)-2,5-diphenyltetrazolium bromide). The MTT test is a colorimetric method for detecting proliferating cells. It is based on the ability of the enzyme mitochondrial dehydrogenase to convert yellow tetrazole salt (MTT) into purple formazan. The amount of the product formed in the reaction, determined spectrophotometrically, is proportional to the number of living cells. The antiproliferative activity was expressed as the concentration that caused 50% inhibition of the growth of the population of cells treated with the test compounds relative to the control cells (inhibitory concentration activity—IC50). Table 1 and Table 2 summarize the IC50 values calculated for all tested compounds.
The in vitro cytotoxicity of the test compounds was determined by the MTT (3-[4,5–dimethylthiazol-2-yl]-2,5-diphenyltetrazolium bromide) test (Sigma-Aldrich, Taufkirchen, Germany) according to the manufacturer’s protocol. At the beginning, for each cell line were determined the optimal seeding densities to ensure exponential growth throughout the experimental period. The confluent layer of cells were trypsinized, collected, and suspended in a growth medium. The cell suspension were then seeded into 96-well plates at a density of 1 × 10^4 or 2 × 10^3 (HCT-116) or 5 × 10^3 (MCF-7, NHDF-Neo) per well and incubated for 24 h under standard conditions (5% CO2, 37 °C). Then, the culture medium was replaced with solutions of different concentrations of test compounds in a fresh medium. Stock solutions of test compounds were prepared in DMSO and diluted to final concentrations with appropriate volumes of the growth medium directly before the experiment. Cells suspended in a medium supplemented with 0.5% DMSO (the amount of DMSO necessary to dissolve the highest dose of the respective sample) were used as a control of the experiment. […] The compound-treated cells were incubated for a further 24–72 h. After that, the medium was removed and the MTT solution (50 µL, 0.5 mg/mL in PBS) was added into each well and incubated for another 3 h under standard conditions (5% CO2, 37 °C). After this time, the MTT dye was carefully removed, and the acquired formazan crystals were dissolved by DMSO (Chempur, Piekary Śląskie, Poland). The proliferation was evaluated by measuring the formazan product’s absorbance at a wavelength of 570 nm with a microplate spectrophotometer (Epoch, BioTek, Winooski, VT, USA). All experiments were conducted in triplicate with four technical repeats for each tested concentration. Results were expressed as the percentage change in the viability of the test cells relative to the untreated control cells and calculated as the inhibitory concentration (IC50). The IC50 values were defined as the drug concentration that was necessary to reduce cell proliferation to 50% of the untreated control and this parameter was calculated using CalcuSyn software (version 2.0, Biosoft, Cambridge, UK). The results are expressed as the average value ± standard deviation (SD).

[4] = IC50 NHDF-Neo / IC50 HCT-116, HCT-116 incubation time 24 h
[5] = IC50 NHDF-Neo / IC50 HCT-116, 72 h incubation

SMILES | IC50 ([1]; incubation time 24 h) [µM] | IC50 [2] [µM] | also measured
CC(=O)OC1O[C@H](CN=[N+]=[N-])[C@@H](OC(C)=O)[C@H](OC(C)=O)[C@H]1OC(C)=O (stereo partly drawn) [Compound 5, 1,2,3,4-tetra-O-acetyl-6-azido-6-deoxy-D-glucopyranose] | > 800 | 201 ± 2.09 | –
[N-]=[N+]=NC[C@H]1OC(O)[C@H](O)[C@@H](O)[C@@H]1O (stereo partly drawn) [Compound 6, 6-azido-6-deoxy-D-glucopyranose] | > 800 | > 800 | –
[N-]=[N+]=NC[C@H]1OC(O)[C@H](O)[C@@H](O)[C@H]1O (stereo partly drawn) [Compound 11, 6-azido-6-deoxy-D-galactopyranose] | > 800 | > 800 | –
CC(=O)OC1O[C@H](CN=[N+]=[N-])[C@H](OC(C)=O)[C@H](OC(C)=O)[C@H]1OC(C)=O (stereo partly drawn) [Compound 12, 1,2,3,4-tetra-O-acetyl-6-azido-6-deoxy-D-galactopyranose] | > 800 | 641.2 ± 1.79 | –
C#CCNC(=O)[C@H]1O[C@@H](OC(C)=O)[C@H](OC(C)=O)[C@@H](OC(C)=O)[C@@H]1OC(C)=O [Compound 15, 1,2,3,4-tetra-O-acetyl-N-(prop-2-yn-1-yl)-β-D-glucopyranuronic acid amide] | 584 ± 9.39 | 714 ± 15.7 | –
C#CCNC(=O)[C@H]1OC(O)[C@H](O)[C@@H](O)[C@@H]1O (stereo partly drawn) [Compound 16, N-(prop-2-yn-1-yl)-D-glucopyranuronic acid amide] | > 800 | > 800 | –
[N-]=[N+]=NC[C@H]1O[C@H](O[C@H]2O[C@H](CN=[N+]=[N-])[C@@H](O)[C@H](O)[C@H]2O)[C@H](O)[C@@H](O)[C@@H]1O [Compound 20, 6,6′-diazido-6,6′-dideoxy-D-trehalose] | > 800 | > 800 | melting point: 118 °C
CC(=O)O[C@@H]1[C@@H](OC(C)=O)[C@@H](O[C@H]2O[C@H](CN=[N+]=[N-])[C@@H](OC(C)=O)[C@H](OC(C)=O)[C@H]2OC(C)=O)O[C@H](CN=[N+]=[N-])[C@H]1OC(C)=O [Compound 23, 2,3,4,2′,3′,4′-hexa-O-acetyl-6,6′-diazido-6,6′-dideoxy-D-trehalose] | > 800 | > 800 | melting point: 92 to 93 °C
CC(=O)OC1O[C@H](Cn2cc(CO)nn2)[C@@H](OC(C)=O)[C@H](OC(C)=O)[C@H]1OC(C)=O (stereo partly drawn) [Compound 29] | > 800 | > 800 | –
OCc1cn(C[C@H]2OC(O)[C@H](O)[C@@H](O)[C@@H]2O)nn1 (stereo partly drawn) [Compound 30] | > 800 | > 800 | –
CC(=O)OC1O[C@H](Cn2cc(CO)nn2)[C@H](OC(C)=O)[C@H](OC(C)=O)[C@H]1OC(C)=O (stereo partly drawn) [Compound 31] | > 800 | > 800 | –
OCc1cn(C[C@H]2OC(O)[C@H](O)[C@@H](O)[C@H]2O)nn1 (stereo partly drawn) [Compound 32] | > 800 | > 800 | –
CC(=O)OC1O[C@H](C(=O)NCc2cn(CCO)nn2)[C@@H](OC(C)=O)[C@H](OC(C)=O)[C@H]1OC(C)=O (stereo partly drawn) [Compound 33] | > 800 | > 800 | –
O=C(NCc1cn(CCO)nn1)[C@H]1OC(O)[C@H](O)[C@@H](O)[C@@H]1O (stereo partly drawn) [Compound 34] | > 800 | > 800 | –
CC(=O)O[C@@H]1[C@@H](OC(C)=O)[C@@H](O[C@H]2O[C@H](Cn3cc(CO)nn3)[C@@H](OC(C)=O)[C@H](OC(C)=O)[C@H]2OC(C)=O)O[C@H](Cn2cc(CO)nn2)[C@H]1OC(C)=O [Compound 35] | > 800 | > 800 | –
OCc1cn(C[C@H]2O[C@H](O[C@H]3O[C@H](Cn4cc(CO)nn4)[C@@H](O)[C@H](O)[C@H]3O)[C@H](O)[C@@H](O)[C@@H]2O)nn1 [Compound 36] | > 800 | > 800 | –
CC(=O)OC1O[C@H](Cn2cc(COc3cccc4cccnc34)nn2)[C@H](OC(C)=O)[C@H](OC(C)=O)[C@H]1OC(C)=O (stereo partly drawn) [Compound B-1] | 75.1 ± 1.3 | 36.67 ± 0.03 | Selectivity Index (SI) HCT-116 [1, 4]: 1.08 ^b; Selectivity Index (SI) MCF-7 [2]: 2.22; IC50 [3]: 81.42 ± 0.52 µM
OC1O[C@H](Cn2cc(COc3cccc4cccnc34)nn2)[C@H](O)[C@H](O)[C@H]1O (stereo partly drawn) [Compound B-2] | 293 ± 8 | 156 ± 7.4 | Selectivity Index (SI) HCT-116 [1, 4]: 0.93 ^b; Selectivity Index (SI) MCF-7 [2]: 1.74; IC50 [3]: 271.6 ± 0.35 µM
CC(=O)O[C@@H]1O[C@H](C(=O)NCc2cn(CCOc3cccc4cccnc34)nn2)[C@@H](OC(C)=O)[C@H](OC(C)=O)[C@H]1OC(C)=O [Compound C-1] | 173 ± 6.68 | 224 ± 7.34 | IC50 ([1]; incubation time 72 h): 81.5 ± 3.36 µM; Selectivity Index (SI) HCT-116 [1, 5]: 2.64; growth inhibitory activity in words, HCT-116 [1]: did not show significant ability to inhibit cell growth; Selectivity Index (SI) MCF-7 [2]: 0.96; growth inhibitory activity in words, MCF-7 [2]: did not show significant ability to inhibit cell growth; IC50 [3]: 215 ± 3.1 µM
CC(=O)O[C@@H]1O[C@H](C(=O)NCc2cn(CCCOc3cccc4cccnc34)nn2)[C@@H](OC(C)=O)[C@H](OC(C)=O)[C@H]1OC(C)=O [Compound C-2] | 94.2 ± 1.48 | 157 ± 7.86 | IC50 ([1]; incubation time 72 h): 62.35 ± 0.32 µM; Selectivity Index (SI) HCT-116 [1, 5]: 5.11; growth inhibitory activity in words, HCT-116 [1]: did not show significant ability to inhibit cell growth; Selectivity Index (SI) MCF-7 [2]: 2.03; growth inhibitory activity in words, MCF-7 [2]: did not show significant ability to inhibit cell growth; IC50 [3]: 318.5 ± 3.09 µM
O=C(NCc1cn(CCCOc2cccc3cccnc23)nn1)[C@H]1OC(O)[C@H](O)[C@@H](O)[C@@H]1O (stereo partly drawn) [Compound C-3] | > 800 | 706.6 ± 2.87 | IC50 ([1]; incubation time 72 h): 767 ± 2.39 µM; growth inhibitory activity in words, HCT-116 [1]: inactive; growth inhibitory activity in words, MCF-7 [2]: inactive; IC50 [3]: > 800 µM
CC(=O)O[C@@H]1[C@@H](OC(C)=O)[C@@H](O[C@H]2O[C@H](Cn3cc(COc4cccc5cccnc45)nn3)[C@@H](OC(C)=O)[C@H](OC(C)=O)[C@H]2OC(C)=O)O[C@H](Cn2cc(COc3cccc4cccnc34)nn2)[C@H]1OC(C)=O [Compound D-1] | 46.3 ± 3.12 | 30.7 ± 0.99 | IC50 ([1]; incubation time 72 h): 26.3 ± 0.72 µM; Selectivity Index (SI) HCT-116 [1, 5]: 1.31; Selectivity Index (SI) MCF-7 [2]: 1.12; IC50 [3]: 34.5 ± 0.39 µM
